From patent US20180064687A1, “PHARMACEUTICAL COMPOSITION FOR THE PREVENTION AND TREATMENT OF DISEASES ASSOCIATED WITH ELEVATED INDUCIBLE NITRIC OXIDE SYNTHASE” (AKCIJU SABIEDRIBA "OLAINFARM', priority 2015, published 2018)
Entries after “also recorded” stand apart in the source; their conditions may differ. Counter-ions that a name gives are not always drawn.

Assays:
[1] = tested on: formalin-induced nociceptive responses; details: cited from earlier work; for nociceptive responses to formalin-produced peripheral neuropathy: systemic and intrathecal administration, mice and rats
NOS = details: patients with septic shock, cited from earlier work
iNOS gene expression = experiment: LPS-induced iNOS gene overexpression in brain tissue, septic shock model (quantitative RT-PCR); type: in vivo; details: mice; 50 mg/kg injected simultaneously with LPS 20 mg/kg i.p.; tissue sampled 6 h after; compared with LPS group
Protocol: (§1) Male ICR mice weighing 25-30 g were obtained from the Laboratory of Experimental Animals, Riga Stradins University (Riga, Latvia), and housed under standard conditions (21-23° C., relative humidity 65%±10%, 12 h light-dark cycle) with unlimited access to standard food (R70 diet, Lactamin AB, Sweden) and water. The experimental procedures were performed in accordance with the guidelines reported in EU Directive 2010/63/EU and in accordance with local laws and policies; all of the procedures were approved by the Latvian Animal Protection Ethical Committee of Food and Veterinary Service in Riga, Latvia. To eliminate systematic differences between the treatment groups, the animals were randomly assigned to their respective experimental groups (12 animals in each group for formalin test and 6 animals in each group for LPS test). To avoid subjective factors in the rating process, all experimental procedures were performed in a blinded fashion.
The iNOS gene expression was stimulated by a single intraperitoneal (i.p.) injection of LPS at a dose of 20 mg/kg 6 h before the tissue sampling. Control animals received i.p. injection of saline (0.9% NaCl). […]
Brain tissue after sampling were immediately frozen in liquid nitrogen and stored at −80° C. […] Samples were diluted with water at v/v ratio of 1:20 and the quality and quantity of extracted total RNA were examined by measuring the absorbance at 230, 260 and 280 nm with a μQuant™ (BioTek) spectrophotometer. […] Quantitative RT-PCR analysis for iNOS was performed by mixing synthesized cDNA (diluted with water at v/v ratio of 1:10), appropriate primers, and SYBR® Green Master Mix (Applied Biosystems™, USA) and run in the Applied Biosystems Prism 7500 according to the manufacturer's protocol. The transcript levels for the constitutive housekeeping gene product β-actin were quantitatively measured for each sample, and PCR data were reported as the number of transcripts per number of β-actin mRNA molecules.

LPS-induced hypothermia = LPS-induced hypothermia (rectal temperature), septic shock model; type: in vivo; details: mice; 50 mg/kg i.p. simultaneously with LPS 20 mg/kg; 6 h after injection
Protocol: as §1
The hypothermia was induced by an i.p. injection of LPS at a dose of 20 mg/kg. Control animals received i.p. injection of saline (0.9% NaCl). […] The rectal temperature of animals was measured using a thermometer (Thermalert TH-5, USA) at 5 min before LPS or saline injection and 6 hours after injection.

[2] = tested on: formalin-induced paw licking; experiment: Formalin-induced paw licking test (formalin-induced peripheral neuropathy); type: in vivo; details: mice, pre-treatment 50 mg/kg
Protocol: as §1
Formalin-induced licking paw test was performed as described previously by Zvejniece et al 2006 (Zvejniece L., Muceniece R., Krigere L., Dambrova M., Klusa V. Z. Pharmacol. Biochem. Behav. 2006, 85 (2),287-91). Briefly, mice were gently restrained and 30 μl of formalin solution (1.5% in saline) was injected s.c. into the plantar surface of the right hind paw, using a microsyringe with a 27-gauge needle. Each mouse was then placed in an individual clear Plexiglas observation chamber (30×20×30 cm) and the total licking time of hind paw of each mouse was registered and quantified in subsequent 5-minute intervals for 50 minutes. The recording of licking time started immediately (first phase) and lasted for 5 min. The late phase (second phase) started about 15-20 min after formalin injection and lasted up to 35 min.

[3] = i.p. administration; cited from earlier work
[4] = in vivo; cited from earlier work
[5] = phase II, compared to saline treated group

For `COC(=O)[C@@H](N)CCCNC(=N)N[N+](=O)[O-]` [L-NAME, Nω-nitro-L-arginine methyl ester], the “nociceptive responses to formalin-produced peripheral neuropathy” value [1] is listed as “reduces nociceptive responses”, the “results of the phase II trial in septic shock” value (NOS; placebo-controlled double-blind study) is listed as “promising” and the “mortality in the treatment group, phase III trial” value (NOS; trial terminated prematurely) is listed as “increase in mortality”.
For `CN(C)CCC=C1c2ccccc2CCc2ccccc21` [amitriptyline], the “peripheral nociception in formalin-induced paw licking test II phase” value (from here on “peripheral nociception”) [1] is listed as “anti-nociceptive activity”.
In the case of `N#Cc1ccc(C(=O)N2CCC3(CC2)N=C(N)c2c(F)ccc(F)c2N3)cn1` [AR-C102222], the “peripheral nociception” value [1] is given as “reduce peripheral nociception”.
In the case of `O=[N+]([O-])c1cccc2cn[nH]c12` [7-nitroindazole], the “nociceptive responses to formalin-produced peripheral neuropathy” value [1] is listed as “reduces nociceptive responses”.
In the case of `CC(C)C[C@H](CN)CC(=O)O` [pregabalin], the “peripheral nociception” value [1] is given as “anti-nociceptive activity”.
For `NC(=O)CN1C[C@@H](c2ccccc2)CC1=O` [(4R)-2-(4-phenyl-2-oxopyrrolidin-1-yl)acetamide], the “LPS-induced iNOS gene expression in brain tissue” value (“LPS-induced iNOS gene expression” for short) (iNOS gene expression) was “highly effective; also recorded: significantly reduced”, the “LPS-induced hypothermia (rectal temperature)” value (LPS-induced hypothermia) was “significantly inhibited” and the “reduction of the paw licking behavior in phase II” value ([2]; phase II) was 46%. For the same compound, the “paw licking response time in II phase” value [2, 5] was “significant inhibition”, the “dose up to which no side effects on the body system are caused” value [3] was no more than 250 mg/kg and the excretion from body [4] was “totally excreted from body in unmetabolized form”.
For `NCC1(CC(=O)O)CCCCC1` [gabapentin], the “peripheral nociception” value [1] is listed as “anti-nociceptive activity”.
In the case of `NC(=O)CN1CC(c2ccccc2)CC1=O` [(4R,S)-2-(4-phenyl-2-oxopyrrolidin-1-yl)acetamide], the “LPS-induced iNOS gene expression” value (iNOS gene expression) is reported as “tendency to reduce LPS action; also recorded: did not reduce”, the “paw-licking time in I phase” value ([2]; phase I, compared to saline treated group) is reported as “did not reduce; also recorded: almost no effect” and the “paw licking response time in II phase” value [2, 5] is reported as “did not reduce; also recorded: almost no effect”.
In the case of `NC(=O)CN1C[C@H](c2ccccc2)CC1=O` [(4S)-2-(4-phenyl-2-oxopyrrolidin-1-yl)acetamide], the “LPS-induced iNOS gene expression” value (iNOS gene expression) is reported as “absolutely inactive; also recorded: did not reduce”.
In the case of `N=C(N)NN` [aminoguanidine hydrochloride], the “peripheral nociception” value [1] is given as “reduce peripheral nociception”.
